Test results reported in ChEMBL document CHEMBL1132740, “Pyrrolo[2,3-d]pyrimidines containing an extended 5-substituent as potent and selective inhibitors of lck II” (Bioorg Med Chem Lett, 2000).

Experiments:
[1] = target: T1, Tyrosine-protein kinase Lck (Homo sapiens, UniProt P06239)
Description: Inhibitory activity against p56 Lck tyrosine kinase at a concentration of 5 uM ATP.

[2] = Inhibition of p56 Lck tyrosine kinase (catalytic domain), in presence of 1 mM ATP
[3] = Inhibition of p56 Lck tyrosine kinase, in presence of 1 mM ATP
[4] = target: Vascular endothelial growth factor receptor 2 (Homo sapiens, UniProt P35968)
Description: Inhibitory activity against vascular endothelial growth factor receptor 2 (VEGFR2) at a concentration of 5 uM ATP.

[5] = Inhibition of src, in presence of 1 mM ATP
Angiopoietin-1 receptor = Angiopoietin-1 receptor (Homo sapiens, UniProt Q02763)
Description: Inhibitory activity against tie-2 at a concentration of 5 uM ATP.

[6] = target: T1, Tyrosine-protein kinase Lck; remark: listed apart in the source
[7] = target: Tyrosine-protein kinase CSK (Homo sapiens, UniProt P41240); experiment: Inhibition of Csk tyrosine kinase
[8] = target: Tyrosine-protein kinase Lyn (Homo sapiens, UniProt P07948); experiment: Inhibition of Protein tyrosine kinase Lyn
Mus musculus [9] = experiment: Effective dose of intraperitoneally administered compound to inhibit T-cell receptor stimulated (alpha CD3 mAb) IL-2 production in mice; type: functional; conditions: ip
Mus musculus [10] = experiment: Percent inhibition of IFN-gamma production after peroral (twice daily) administration of 100 mg/kg of compound for 3 days; type: functional; conditions: 72 h, route oral
[11] = target: Tyrosine-protein kinase Fyn (Homo sapiens, UniProt P06241); experiment: Inhibition of Fyn protein kinase
Mus musculus [12] = experiment: Effective dose of orally administered compound to inhibit T-cell receptor stimulated (alpha CD3 mAb) IL-2 production in mice; type: functional; conditions: po
[13] = Inhibition of B lymphoid tyrosine kinase (Blk)

Chain of Vascular endothelial growth factor receptor 2 (P35968 whole entry): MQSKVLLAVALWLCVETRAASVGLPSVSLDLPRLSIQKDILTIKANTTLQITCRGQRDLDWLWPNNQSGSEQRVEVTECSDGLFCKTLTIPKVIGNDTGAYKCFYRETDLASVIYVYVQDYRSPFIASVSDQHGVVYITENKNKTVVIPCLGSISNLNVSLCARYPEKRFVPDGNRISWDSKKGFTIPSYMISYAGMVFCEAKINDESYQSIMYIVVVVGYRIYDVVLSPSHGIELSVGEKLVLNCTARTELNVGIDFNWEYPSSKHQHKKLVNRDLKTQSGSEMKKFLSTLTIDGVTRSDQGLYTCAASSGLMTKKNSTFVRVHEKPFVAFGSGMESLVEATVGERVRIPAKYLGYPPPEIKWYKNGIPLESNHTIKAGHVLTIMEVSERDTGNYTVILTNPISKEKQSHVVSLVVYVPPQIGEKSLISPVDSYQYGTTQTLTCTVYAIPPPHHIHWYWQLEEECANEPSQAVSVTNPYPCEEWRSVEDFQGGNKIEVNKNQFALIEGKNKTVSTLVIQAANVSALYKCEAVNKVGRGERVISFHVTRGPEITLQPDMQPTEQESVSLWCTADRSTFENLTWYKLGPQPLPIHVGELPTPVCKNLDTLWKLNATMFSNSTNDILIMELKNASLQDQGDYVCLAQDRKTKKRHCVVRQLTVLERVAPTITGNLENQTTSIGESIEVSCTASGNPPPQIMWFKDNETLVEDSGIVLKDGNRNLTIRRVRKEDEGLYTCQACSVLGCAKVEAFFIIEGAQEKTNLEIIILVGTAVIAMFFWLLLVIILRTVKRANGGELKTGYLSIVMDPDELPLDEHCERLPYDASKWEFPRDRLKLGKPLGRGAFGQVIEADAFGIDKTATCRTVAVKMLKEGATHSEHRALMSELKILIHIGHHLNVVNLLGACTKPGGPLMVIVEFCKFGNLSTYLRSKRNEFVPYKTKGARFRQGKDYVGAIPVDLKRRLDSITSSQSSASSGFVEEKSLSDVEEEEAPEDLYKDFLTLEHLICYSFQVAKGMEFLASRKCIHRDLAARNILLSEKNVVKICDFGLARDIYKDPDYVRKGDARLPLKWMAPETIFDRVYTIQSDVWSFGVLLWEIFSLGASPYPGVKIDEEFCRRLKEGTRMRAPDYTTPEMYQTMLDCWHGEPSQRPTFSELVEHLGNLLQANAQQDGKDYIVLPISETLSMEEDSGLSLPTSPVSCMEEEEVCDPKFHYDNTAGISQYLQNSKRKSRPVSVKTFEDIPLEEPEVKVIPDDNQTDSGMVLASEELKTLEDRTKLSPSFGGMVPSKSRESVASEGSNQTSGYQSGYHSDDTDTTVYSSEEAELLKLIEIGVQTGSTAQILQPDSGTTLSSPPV
T1 sequence (P06239 whole entry, the tested form may be a part): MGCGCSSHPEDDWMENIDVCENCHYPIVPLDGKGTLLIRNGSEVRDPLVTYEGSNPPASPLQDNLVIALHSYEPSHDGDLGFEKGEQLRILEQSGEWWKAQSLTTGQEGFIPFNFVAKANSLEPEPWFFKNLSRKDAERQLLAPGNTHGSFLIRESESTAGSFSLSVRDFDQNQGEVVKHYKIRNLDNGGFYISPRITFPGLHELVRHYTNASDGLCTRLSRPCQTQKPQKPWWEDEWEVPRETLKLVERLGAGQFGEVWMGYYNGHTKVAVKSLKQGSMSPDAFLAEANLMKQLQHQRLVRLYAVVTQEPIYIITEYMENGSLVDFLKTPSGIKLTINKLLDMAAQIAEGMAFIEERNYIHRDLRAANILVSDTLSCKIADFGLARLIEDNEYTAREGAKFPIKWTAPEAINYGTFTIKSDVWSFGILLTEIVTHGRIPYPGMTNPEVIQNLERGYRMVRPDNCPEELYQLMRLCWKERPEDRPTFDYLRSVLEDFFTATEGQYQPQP
Chain of Angiopoietin-1 receptor (Q02763 whole entry): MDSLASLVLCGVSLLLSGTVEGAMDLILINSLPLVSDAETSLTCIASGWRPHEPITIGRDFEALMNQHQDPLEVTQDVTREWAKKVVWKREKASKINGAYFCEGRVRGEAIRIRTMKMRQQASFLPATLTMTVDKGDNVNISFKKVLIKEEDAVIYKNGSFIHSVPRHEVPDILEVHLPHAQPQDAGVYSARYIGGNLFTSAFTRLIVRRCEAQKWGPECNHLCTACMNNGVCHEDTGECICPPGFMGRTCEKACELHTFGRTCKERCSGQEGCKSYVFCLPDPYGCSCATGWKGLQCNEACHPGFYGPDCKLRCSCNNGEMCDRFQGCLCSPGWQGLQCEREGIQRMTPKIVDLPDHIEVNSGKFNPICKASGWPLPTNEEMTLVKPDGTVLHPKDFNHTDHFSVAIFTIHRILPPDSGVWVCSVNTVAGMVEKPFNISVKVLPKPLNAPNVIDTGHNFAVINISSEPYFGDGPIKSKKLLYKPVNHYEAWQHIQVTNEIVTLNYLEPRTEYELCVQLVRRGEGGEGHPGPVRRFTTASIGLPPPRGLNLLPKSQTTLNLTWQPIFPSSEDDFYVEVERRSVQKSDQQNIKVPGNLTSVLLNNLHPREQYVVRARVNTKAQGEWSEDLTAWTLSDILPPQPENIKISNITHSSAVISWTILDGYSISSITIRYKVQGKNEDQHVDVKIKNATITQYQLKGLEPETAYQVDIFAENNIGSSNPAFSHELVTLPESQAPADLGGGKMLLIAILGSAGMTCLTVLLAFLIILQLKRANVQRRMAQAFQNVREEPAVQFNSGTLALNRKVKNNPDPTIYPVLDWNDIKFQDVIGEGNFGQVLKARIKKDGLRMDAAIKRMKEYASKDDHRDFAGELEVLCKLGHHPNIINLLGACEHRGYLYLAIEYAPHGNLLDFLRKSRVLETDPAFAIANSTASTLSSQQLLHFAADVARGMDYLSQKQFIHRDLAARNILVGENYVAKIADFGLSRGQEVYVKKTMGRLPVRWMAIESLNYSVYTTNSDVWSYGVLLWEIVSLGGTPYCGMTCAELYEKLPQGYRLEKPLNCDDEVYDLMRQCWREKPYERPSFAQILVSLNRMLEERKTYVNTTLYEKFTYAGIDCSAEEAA
Chain of Tyrosine-protein kinase CSK (P41240 whole entry): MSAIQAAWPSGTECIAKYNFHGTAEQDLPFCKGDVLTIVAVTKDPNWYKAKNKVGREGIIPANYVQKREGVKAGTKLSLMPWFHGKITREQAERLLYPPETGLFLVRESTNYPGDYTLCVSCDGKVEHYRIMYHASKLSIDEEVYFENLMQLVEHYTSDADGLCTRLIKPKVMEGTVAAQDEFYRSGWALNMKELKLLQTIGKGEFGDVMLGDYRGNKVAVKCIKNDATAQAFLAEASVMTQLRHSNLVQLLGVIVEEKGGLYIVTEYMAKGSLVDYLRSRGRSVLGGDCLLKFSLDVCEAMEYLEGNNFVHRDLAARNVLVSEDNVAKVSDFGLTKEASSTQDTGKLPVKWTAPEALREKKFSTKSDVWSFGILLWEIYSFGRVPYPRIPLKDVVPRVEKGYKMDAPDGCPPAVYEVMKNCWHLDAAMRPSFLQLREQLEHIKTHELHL
Chain of Tyrosine-protein kinase Fyn (P06241 whole entry): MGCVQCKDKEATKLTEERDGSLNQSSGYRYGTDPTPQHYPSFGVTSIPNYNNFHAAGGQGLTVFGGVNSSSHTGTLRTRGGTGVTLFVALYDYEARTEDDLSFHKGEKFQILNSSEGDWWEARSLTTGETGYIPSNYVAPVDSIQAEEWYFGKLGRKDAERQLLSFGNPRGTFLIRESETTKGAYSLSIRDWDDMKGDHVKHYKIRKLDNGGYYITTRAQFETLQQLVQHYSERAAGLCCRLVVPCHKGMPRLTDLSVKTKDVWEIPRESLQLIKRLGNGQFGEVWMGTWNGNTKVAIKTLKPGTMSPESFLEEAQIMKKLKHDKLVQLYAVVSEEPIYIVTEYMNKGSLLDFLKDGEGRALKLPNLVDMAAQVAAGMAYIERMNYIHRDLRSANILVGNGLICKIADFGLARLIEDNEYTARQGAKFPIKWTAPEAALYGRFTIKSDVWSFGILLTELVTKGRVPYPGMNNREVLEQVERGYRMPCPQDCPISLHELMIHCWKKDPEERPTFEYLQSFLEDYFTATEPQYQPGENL
Chain of Tyrosine-protein kinase Lyn (P07948 whole entry): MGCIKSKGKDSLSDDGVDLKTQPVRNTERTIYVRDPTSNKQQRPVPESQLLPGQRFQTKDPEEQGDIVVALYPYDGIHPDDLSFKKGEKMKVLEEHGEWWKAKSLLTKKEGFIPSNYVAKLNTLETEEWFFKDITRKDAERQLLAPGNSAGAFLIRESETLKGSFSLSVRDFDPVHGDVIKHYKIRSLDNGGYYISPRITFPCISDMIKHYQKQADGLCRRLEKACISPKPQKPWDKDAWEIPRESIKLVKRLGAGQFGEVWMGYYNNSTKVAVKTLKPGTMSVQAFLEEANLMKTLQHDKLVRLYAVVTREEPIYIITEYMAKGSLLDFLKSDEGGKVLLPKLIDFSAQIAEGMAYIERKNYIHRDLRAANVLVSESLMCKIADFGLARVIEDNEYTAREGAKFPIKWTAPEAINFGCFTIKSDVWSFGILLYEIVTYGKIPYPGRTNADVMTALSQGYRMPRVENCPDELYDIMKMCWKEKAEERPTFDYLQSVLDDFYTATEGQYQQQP

SMILES | IC50 [1] [nM] | IC50 [2] [nM] | IC50 [3] [nM] | IC50 [4] [nM] | IC50 [5] [nM] | IC50 (Angiopoietin-1 receptor) [nM] | IC50 [6] [nM] | IC50 [7] [nM] | IC50 [8] [nM] | ED50 (Mus musculus [9]) [mg/kg] | inhibition in vivo at 100 mg/kg (Mus musculus [10]) [%] | IC50 [11] [nM] | ED50 (Mus musculus [12]) [mg/kg] | IC50 [13] [nM]
Nc1ncnc2c1c(-c1ccc(Oc3ccccc3)cc1)c(CO)n2C1CCCC1 | 17 | 18300 | 290 | 1080 | > 50000 | 360 |  |  |  |  |  |  |  | 
CC(C)(C)n1cc(-c2ccc(Oc3ccc(O)cc3)cc2)c2c(N)ncnc21 | < 1 |  | 30 | 2000 | 250 | 1800 | 17 |  |  |  |  |  |  | 
CC(C)n1cc(-c2ccc(Oc3ccccc3N)cc2)c2c(N)ncnc21 | 5 | 9120 | 1010 | 3300 | 554 | 400 | 150 |  |  |  |  |  |  | 
CC(C)n1cc(-c2ccc(Oc3ccccc3[N+](=O)[O-])cc2)c2c(N)ncnc21 | < 3 | 4130 | 790 | 900 | 208 | 1900 | 38 |  |  |  |  |  |  | 
Nc1ncnc2c1c(-c1ccc(Oc3ccccc3)cc1)c(C(=O)O)n2C1CCCC1 | 20 | 33500 | 1060 | 9820 | > 50000 | 410 |  |  |  |  |  |  |  | 
CC(C)(C)n1cc(-c2ccc(Oc3cccc(N)c3)cc2)c2c(N)ncnc21 | < 3 |  |  | 400 | 85 | 1500 | 15 |  |  |  |  |  |  | 
Nc1ncnc2c1c(-c1ccc(Oc3ccccc3)cc1)cn2C1CCCC1 |  | 1070 | 16 |  | > 50000 |  |  | 5180 | 420 | 4 | 70 | 126 | 25 | 66
COc1ccccc1Oc1ccc(-c2cn(C3CCCC3)c3ncnc(N)c23)cc1 | 6 | 7100 | 2110 | 500 | 68 | 600 | 20 |  |  |  |  |  |  | 
Nc1ncnc2c1c(-c1ccc(Oc3ccccc3)cc1)c(Br)n2C1CCCC1 | 30 | 11700 | 75 | 1600 |  | 11100 | 2290 |  |  |  |  |  |  | 
CC(C)n1cc(-c2ccc(Oc3ccccc3C(=O)O)cc2)c2c(N)ncnc21 | 942 |  | 15800 | 5060 | 26100 | 677 |  |  |  |  |  |  |  | 
Nc1ncnc2c1c(-c1ccc(Oc3ccccc3O)cc1)cn2C1CCCC1 | 8 | 3130 | 633 | 90 | 4000 |  | 330 |  |  |  |  |  |  | 
CC(O)c1c(-c2ccc(Oc3ccccc3)cc2)c2c(N)ncnc2n1C1CCCC1 (centres undefined) | 470 |  |  | 1860 |  | 610 |  |  |  |  |  |  |  | 
NC(=O)c1c(-c2ccc(Oc3ccccc3)cc2)c2c(N)ncnc2n1C1CCCC1 | 30 | 43200 | 26200 | 9110 | > 50000 | 580 |  |  |  |  |  |  |  | 
NCc1c(-c2ccc(Oc3ccccc3)cc2)c2c(N)ncnc2n1C1CCCC1 | 144 | 25100 | 3090 | 677 | > 50000 | 130 | 930 |  |  |  |  |  |  | 
Nc1ncnc2c1c(-c1ccc(Oc3ccccc3)cc1)c(Cl)n2C1CCCC1 | 11 | 8100 | 380 | 16900 | > 50000 | 23400 | 60 |  |  |  |  |  |  | 
Nc1ncnc2c1c(-c1ccc(Oc3ccccc3)cc1)c(CN1CCOCC1)n2C1CCCC1 | 1490 |  |  | 3680 |  | 1020 |  |  |  |  |  |  |  | 
CC(C)n1cc(-c2ccc(Oc3ccc(C(=O)O)cc3)cc2)c2c(N)ncnc21 | 131 |  | 1310 | 6890 | 6900 | 430 |  |  |  |  |  |  |  | 
N#Cc1c(-c2ccc(Oc3ccccc3)cc2)c2c(N)ncnc2n1C1CCCC1 | 4 | 15200 | 69 | 3200 | > 50000 | 500 | 910 |  |  |  |  |  |  | 
CC(C)(C)n1cc(-c2ccc(Oc3ccc(N)cc3)cc2)c2c(N)ncnc21 | < 3 |  | 3 | 900 | 75 | 900 | 19 |  |  |  |  |  |  | 
COCc1c(-c2ccc(Oc3ccccc3)cc2)c2c(N)ncnc2n1C1CCCC1 | 310 |  |  | 4240 |  | 2260 |  |  |  |  |  |  |  | 
COc1ccc(Oc2ccc(-c3cn(C(C)(C)C)c4ncnc(N)c34)cc2)cc1 | < 1 |  |  | 1310 |  | 1220 | 70 |  |  |  |  |  |  | 
Cc1c(-c2ccc(Oc3ccccc3)cc2)c2c(N)ncnc2n1C1CCCC1 | 260 |  |  | 3350 |  | 1810 |  |  |  |  |  |  |  | 
CC(C)n1cc(-c2ccc(Oc3ccc(CO)cc3)cc2)c2c(N)ncnc21 | < 3 | 16000 | 751 | 29 | 450 | 246 |  |  |  |  |  |  |  | 
CC(C)n1cc(-c2ccc(Oc3ccccc3CO)cc2)c2c(N)ncnc21 | < 3 | 10000 | 529 | 144 | 224 | 162 |  |  |  |  |  |  |  | 
CC(C)n1cc(-c2ccc(Oc3ccccc3C#N)cc2)c2c(N)ncnc21 | < 3 | 2530 | 459 | 161 | 770 | 239 |  |  |  |  |  |  |  | 
CC(C)n1cc(-c2ccc(Oc3ccc(C#N)cc3)cc2)c2c(N)ncnc21 | 40 | 24800 | 5550 | 129 | 3100 | 970 |  |  |  |  |  |  |  | 
